Entries after “also recorded” stand apart in the source; their conditions may differ.
How the values were obtained:
[1] = system: renal vascular bed of perfused kidneys; experiment: Acute perfusion of diabetic rabbit kidneys: acetylcholine-induced decrease in perfusion pressure; design: species or system alloxan-diabetic rabbits; conditions: 3-week diabetic rabbit kidneys; for restoration of endothelial function (acetylcholine induced decrease in perfusion pressure): perfusion with 1 μM, first experiment; for restoration of vasorelaxant effect of acetylcholine, DCI versus db-DCI: repeated perfusion experiment, 1 μM
Protocol: (§1) Male California rabbits, weighing 2-2.5 kg, were provided by the vivarium of the Biomedicine Institute-UFC. Diabetes was induced by intraperitoneal injection of alloxan (150 mg/kg) and only animals with plasma glucose concentration above 200 mg/dl were included in the study. Age-matched euglycemic rabbits were used as controls.
Kidneys and aortic rings are harvested from diabetic rabbits after 3 weeks of alloxan injection. They are perfused with KHS containing 1 μM D-chiro-inositol, pinitol, dibutyryl D-chiro-inositol, myo-inositol or saline for 1 hour. Dose response curves for acetylcholine are then performed following prior phenylephrine vasoconstriction as described. At least 6 separate experiments will be performed each in duplicate.
Kidneys and aortic rings were harvested from diabetic rabbits after 3 weeks of alloxan injection. The animals were sacrificed under sodium pentobarbital anesthesia (Hypnol®, 150-200 mg/kg). […]. Rabbit kidneys were obtained from male New Zealand rabbits (1-1.5 kg) after cannulation of the renal artery in situ. [Thereafter the organ is rapidly perfused with warm KHS at 37° C., pH 7.4 and gassed with 95% O2 in 5% CO2 in an open system with a constant flow adjusted to yield 1 mL/g/min and maintained by a peristaltic pump. The alterations in perfusion pressure are continuously recorded in a four-channel polygraph (Narco Biosystems, Houston, Tex., USA) by means of a pressure transducer (P23 Gould Stratham, Oxnard, Calif., USA). After a 30 minute equilibration period, phenylephrine (1 to 5 μM) is infused by means of an infusion pump at a constant rate (0.1 ml/min) in order to achieve a stable perfusion pressure (100-120 mm Hg). Concentration-response curves are performed to the vasodilators, i.e. acetylcholine (Ach; 10^-9 to 10^-3 M). Drugs are injected as a 50 μL bolus, previously shown not to effect perfusion pressure in an arm side just above the cannula in the renal artery.] Following penectomy, the corpus cavernosum was dissected in Krebs solution and cleared of the tunica albuginea and surrounding tissues. Strips (2 cm) were mounted vertically in isometric baths (5 mL) in Krebs-Henseleit solution (37° C., pH 7.4 gassed with 95% O2 in 5% CO2) enriched with indomethecin (10 μM) and guanethedine (10 μM) in order to avoid prostanoid or neuronal norandrenergic interaction. After a 60 minute period for stabilization, tissues were precontracted with 10 μM phenylephrine in order to increase the basal tonus. Thereafter, frequency response curves to transmural electrical field stimulations (EFS—square wave pulses: 10 s train; 20 V, 0.5 ms, 2-16 Hz) were performed until two stable reproducible curves were attained. […]

aortic rings = experiment: Rat aortic thoracic rings: acetylcholine relaxation after phenylephrine contraction, 4-week oral treatment; assay type: in vivo, alloxan-diabetic male Wistar rats; conditions: for effect on macrovascular endothelial dysfunction at highest acetyl choline concentrations: FIG. 2, FIG. 3; for effect on macrovascular endothelial dysfunction at intermediate acetylcholine concentration: acetylcholine 10^-7 M; for endothelial dysfunction overall: 4-week oral administration versus saline treated alloxan diabetic rats
Protocol: Male Wistar rats, weighing between 230-250 g, fed regular chow, with free access to water were separated in four groups (n=10/each). The first two groups, termed normoglycemic, were treated with saline (0.1 mL/100 g/12 h) by the oral route (intragastric gavage) or untreated for four weeks. The second two groups, hyperglycemic, were treated with saline (0.1 mL/100 g/12 h) or treated with D-chiro-inositol (20 mg/kg/12 h) under the same protocol. […] Diabetes was induced by a single intravenous injection of 45 mg/kg alloxan as described by Sannomiya et al., 1997 ( ). Diabetes was diagnosed 96 h after injection by blood glucose assay >200 mg/dL. All protocols were approved by the local committee and follow the Guide for the Care and Use of Laboratory Animals published by the US National Institutes of Health (NIH Publication No. 85-23, revised 1996). After completion of blood pressure measurements and vascular mesenteric bed collection, animals were sacrificed by exsanguination while under anesthesia. The thoracic aorta was excised and rapidly cleansed of connective tissue in Petri dishes containing warmed and gassed (95% O2 in 5% CO2) Krebs-Henseleit solution (KHS). The aorta segment was cut in small rings (≈5 mm) and mounted horizontally in 5 mL chambers for isometric recording of tension. The resting tension was adjusted to 1 g and the tissue allowed to equilibrate for 1 hour with a 15 min washout period. Tissues were kept in KHS at 37° C., gassed with the O2, CO2 mixture and isometric recordings made with a force displacement transducer connected to a four-channel polygraph (Narco Biosystems, Houston, Tex., USA). After the equilibration period, tissues were contracted with a submaximal concentration of phenylephrine (≈60% maximal response) until two similar responses were obtained in order to ensure reproducibility of the contraction curves. […] The acetylcholine dose response curve was repeated after a 60 min washout interval. All experiments were performed in the presence of indomethecin (10 μM) and guanethidine (10 μM) to prevent the production of vasoactive prostanoids. At least 6 separate experiments will be performed each in duplicate.

diabetic aortic rings = experiment: NO-induced relaxation in diabetic aortic rings contracted with phenylephrine; conditions: 0.1 μM phenylephrine, inositol 10 μM, 1 hour, FIG. 14
Protocol: NO action was investigated in aortic rings and RbCC. […] The data in FIGS. 14 are expressed as mean±SEM of 5 experimental units. * p<0.05, ANOVA followed by Tukey-Kramer, diab (C) vs. Inositol treated. # p<0.05, ANOVA followed by Tukey-Kramer, Eugly vs. Inositol treated. In FIG. 14, Veh=vehicle; C=diabetic control; Diab=diabetic control; Eugly=euglycemic tissue. Relaxation was restored toward or to normal by incubation with inositols.

penile corpus cavernosus = experiment: Rabbit penile corpus cavernosus: relaxation to electrical field stimulation after 60 min incubation; design: species or system low dose alloxan-diabetic rabbit; conditions: 1 μM; for restoration of vasorelaxant effect of electrical stimulation of the pudendal nerve: EFS 2-16 Hz, FIG. 8
Protocol: as §1
Kidneys and aortic rings were harvested from diabetic rabbits after 3 weeks of alloxan injection. The animals were sacrificed under sodium pentobarbital anesthesia (Hypnol®, 150-200 mg/kg). […]. Rabbit kidneys were obtained from male New Zealand rabbits (1-1.5 kg) after cannulation of the renal artery in situ. [Thereafter the organ is rapidly perfused with warm KHS at 37° C., pH 7.4 and gassed with 95% O2 in 5% CO2 in an open system with a constant flow adjusted to yield 1 mL/g/min and maintained by a peristaltic pump. The alterations in perfusion pressure are continuously recorded in a four-channel polygraph (Narco Biosystems, Houston, Tex., USA) by means of a pressure transducer (P23 Gould Stratham, Oxnard, Calif., USA). After a 30 minute equilibration period, phenylephrine (1 to 5 μM) is infused by means of an infusion pump at a constant rate (0.1 ml/min) in order to achieve a stable perfusion pressure (100-120 mm Hg). Concentration-response curves are performed to the vasodilators, i.e. acetylcholine (Ach; 10^-9 to 10^-3 M). Drugs are injected as a 50 μL bolus, previously shown not to effect perfusion pressure in an arm side just above the cannula in the renal artery.] Following penectomy, the corpus cavernosum was dissected in Krebs solution and cleared of the tunica albuginea and surrounding tissues. Strips (2 cm) were mounted vertically in isometric baths (5 mL) in Krebs-Henseleit solution (37° C., pH 7.4 gassed with 95% O2 in 5% CO2) enriched with indomethecin (10 μM) and guanethedine (10 μM) in order to avoid prostanoid or neuronal norandrenergic interaction. After a 60 minute period for stabilization, tissues were precontracted with 10 μM phenylephrine in order to increase the basal tonus. Thereafter, frequency response curves to transmural electrical field stimulations (EFS—square wave pulses: 10 s train; 20 V, 0.5 ms, 2-16 Hz) were performed until two stable reproducible curves were attained. Then, frequency response curves were repeated after 60 min incubation with saline or 1 μM pinitol, DCI or db-DCI in the alloxan-diabetic rabbits. They are perfused with KHS containing 1 μM D-chiro-inositol, pinitol, dibutyryl D-chiro-inositol, myo-inositol or saline for 60 min. Dose response curves for acetylcholine are then performed following prior phenylephrine vasoconstriction as described. At least 6 separate experiments were performed each in duplicate.

[2] = system: bovine aortic endothelial cells; experiment: Superoxide assay in cells: ROS in high glucose (CM-H2DCFDA); assay type: cell-based; conditions: for reduction of ROS in cells: 30 mM glucose (ROS increased 2 fold vs 5 mM), 20, 50, 100 μM, FIG. 9; for maximal concentration for ROS reduction: 30 mM glucose, tested 20, 50, 100 μM
Protocol: Bovine aortic endothelial cells were incubated in 5 mM (control) or 30 mM (hyperglycemic) glucose for 2 hours and reactive oxygen species (ROS) determined fluorometrically using the probe CM-H2DCFDA as described by Brownlee et al. Cells were loaded with 10 μM CM-H2DCFDDA, incubated for 45 min at 37°, and then analyzed in an HTS 7000 Bio assay Fluorescent Plate Reader using HT software. ROS production is reported as nmol/mL based on a standard curve produced with H2O2.

[3] = chronic oral administration, FIG. 3

SMILES	restoration of endothelial function (acetylcholine induced decrease in perfusion pressure) ([1]; listed as db-DCI)	restoration of endothelial function (acetylcholine induced decrease in perfusion pressure) ([1]; listed as dibutyryl D-chiro-inositol)	restoration of vasorelaxant effect of acetylcholine, DCI versus db-DCI [1]	effect on macrovascular endothelial dysfunction at highest acetyl choline concentrations (aortic rings; chronic oral administration)	effect on macrovascular endothelial dysfunction at lowest acetyl choline concentrations (aortic rings; [3])	effect on macrovascular endothelial dysfunction at intermediate acetylcholine concentration (aortic rings; [3])	relaxation to added NO (diabetic aortic rings)	restoration of vasorelaxant effect of electrical stimulation of the pudendal nerve (penile corpus cavernosus)	restoration of vasorelaxant effect at EFS of 4 Hz (penile corpus cavernosus; EFS 4 Hz)	reduction of ROS in cells [2]	reduction of ROS in cells ([2]; listed as Dibutyryl-DCI)	maximal concentration for ROS reduction [2]	endothelial dysfunction overall (aortic rings)	endothelial dysfunction overall (aortic rings; listed as D-chiro-inositol)	relaxant response induced by acetylcholine, reversal of the pre-contractile state (aortic rings; D-chiro-inositol 20 mg/kg/12 h by gavage four weeks, lower acetylcholine concentrations, saline diabetic 57.4±4.5%)	effect on macrovascular endothelial dysfunction at intermediate acetylcholine concentration (aortic rings; chronic oral administration, FIG. 3, listed as D-chiro-inositol)	reduction of ROS in cells ([2]; listed as D-chiro-inositol)
CCCC(=O)O[C@@H]1[C@@H](O)[C@@H](O)[C@H](O)[C@H](O)[C@H]1OC(=O)CCC [dbDCI, 3,4-dibutyryl-D-chiroinositol]	completely restored endothelial function	restored to normal	partially restored	the most effective	most effective at the lowest acetyl choline concentrations	greatest effect	restored relaxation to normal	restoration of vasorelaxant effect; also recorded: greatest effect at all levels of electrical stimulation	Almost complete restoration	reduced back to basal concentrations in a dose dependant manner	greater effect of reducing ROS than DCI at lower concentrations	20 µM	–	–	–	–	–
OC1C(O)C(O)C(O)C(O)C1O [DCI, D-chiro-inositol]	–	–	partially restored	partially restored to normal; also recorded: the most effective	–	followed by DCI, pinitol and myoinositol in descending order of effect	restored relaxation to normal	restoration of vasorelaxant effect	–	reduced back to basal concentrations in a dose dependant manner	–	50 µM	effective in improving endothelial dysfunction	prevented the endothelial dysfunction	100%	active at intermediate acetyl choline concentrations	reduced to basal concentrations in a dose dependent manner

— patent US20060258754A1, “Method of treating endothelial dysfunction, oxidative stress and related diseases” (priority 2004, published 2006)
